Source: patent US20220142995A1, “DUAL ATM AND DNA-PK INHIBITORS FOR USE IN ANTI-TUMOR THERAPY” (XRAD Therapeutics, Inc., priority 2019, published 2022)

Test system: TBK1
Test: Immunoblot of TBK1 phosphorylation in HCT116 cells (p53 wild-type or p53-/-)
Assay type: cell-based
Method: Cell Culture. The MCF-7 human breast carcinoma cell line and HCT116 p53 wild-type and HCT116 p53−/− cell lines were obtained from ATCC. […]
Immunoblotting. […] One hour after IR, cells were lysed in RIPA buffer ([…], pH 8.0, 150 mM NaCl, 0.1% SDS, 0.5% sodium deoxycholate, 1% IGEPAL® CA-630 (Sigma, 18896) for 20 min at 4° C. in the presence of protease and phosphatase inhibitor cocktails (Roche, #04693159001 & #04906837001). Cell lysates were centrifuged at 13,200 g for 10 min at 4° C. and supernatants were analyzed for protein content using BCA assay (Pierce™ BCA Protein Assay Kit, cat #23227, ThermoFisher Waltham, Mass. 02451) and equal amounts of protein/lane were used for subsequent immunoblot analyses. Proteins were denatured by adding NuPAGE LSD Sample Buffer [4×] […]

## CC(C)NCCOc1ncc(-c2cc3c4c(cnc3cc2F)N(C)C(=O)C42CCC2)cc1NS(C)(=O)=O [Compound 569, N-(5-(7′-Fluoro-3′-methyl-2′-oxo-2′,3′-dihydrospiro[cyclobutane-1,1′-pyrrolo[2,3-c]quinolin]-8′-yl)-2-(2-(isopropylamino)ethoxy)pyridin-3-yl)methanesulfonamide]
HCT116 p53 wild-type or p53-/- cells, 569 1 μM, ATMi + DNA-PKi 0.5 or 1 micromolar each, 0 or 10 Gy
  induction of phosphorylation (activation) of TBK1: more potent activator of TBK1 phosphorylation than either of the single target kinase inhibitors
HCT116 p53 wild-type vs p53-negative cells, 1 μM
  dependence of TBK1 activation on p53 status: independent of p53 status
